Measurements reported in US6737383B1, “Herbicidal oxadiazolidines” (priority 1999, dated 2004).

Legend:
surinam grass = test: Test B pre/postemergence surinam grass; type: in vivo, Brachiaria decumbens
Outline: (§1)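 Response is a visual 0-to-10 score relative to untreated plants, where 0 means no effect and 10 means complete control, taken twelve to sixteen days after application. Treatments went onto soil at planting and onto foliage of 1- to 4-leaf plants, using a surfactant-containing non-phytotoxic solvent.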

wheat = test: Test B pre/postemergence wheat; type: in vivo, Triticum aestivum
Outline: as §1

morningglory = test: Test B pre/postemergence morningglory; type: in vivo, Ipomoea hederacea
Outline: as §1

wild oat = test: Test B pre/postemergence wild oat; type: in vivo, Avena fatua
Outline: as §1

rice = test: Test B flood test rice; type: in vivo, Oryza sativa
Outline: (§2)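 Read-out is a visual response score from 0 (no effect) to 10 (complete control), assigned by comparison with untreated controls. Treatment was applied at the 2-leaf stage, and plants stayed in the greenhouse for twelve to sixteen days before scoring.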

giant foxtail = test: Test B pre/postemergence giant foxtail; type: in vivo, Setaria faberii
Outline: as §1

corn = test: Test B pre/postemergence corn; type: in vivo, Zea mays
Outline: as §1

purple nutsedge = test: Test B pre/postemergence purple nutsedge; type: in vivo, Cyperus rotundus
Outline: as §1

duck salad = test: Test B flood test duck salad; type: in vivo, Heteranthera limosa
Outline: as §2

bedstraw = test: Test B pre/postemergence bedstraw; type: in vivo, Galium aparine
Outline: as §1

pigweed = test: Test B pre/postemergence pigweed; type: in vivo, Amaranthus retroflexus
Outline: as §1

velvetleaf = test: Test B pre/postemergence velvetleaf; type: in vivo, Abutilon theophrasti
Outline: as §1

smallflower flatsedge = test: Test B flood test smallflower flatsedge; type: in vivo, Cyperus difformis
Outline: as §2

crabgrass = test: Test B pre/postemergence crabgrass; type: in vivo, Digitaria sanguinalis
Outline: as §1

soybean = test: Test B pre/postemergence soybean; type: in vivo, Glycine max
Outline: as §1

blackgrass = test: Test B pre/postemergence blackgrass; type: in vivo, Alopecurus myosuroides
Outline: as §1

[1] = Preemergence, Rate 62 g/ha, scale of 0 to 10 where 0 is no effect and 10 is complete control
[2] = Preemergence, Rate 500 g/ha, scale of 0 to 10 where 0 is no effect and 10 is complete control
[3] = Rate 62 g/ha, Postemergence, scale of 0 to 10 where 0 is no effect and 10 is complete control
[4] = Rate 125 g/ha, Preemergence, scale of 0 to 10 where 0 is no effect and 10 is complete control
[5] = Rate 500 g/ha, Postemergence, scale 0 to 10, 0 no effect, 10 complete control
[6] = Preemergence, Rate 250 g/ha, scale of 0 to 10 where 0 is no effect and 10 is complete control
[7] = Rate 125 g/ha, Postemergence, scale 0 to 10
[8] = Rate 62 g/ha, headed Pre-emergence (flood test species), scale 0 to 10 (0 no effect, 10 complete control)
[9] = Rate 125 g/ha, Pre-emergence, flood test species, scale 0 to 10 where 0 is no effect and 10 is complete control
[10] = Rate 250 g/ha, Pre-emergence, flood-test species, scale 0 to 10, 0 is no effect, 10 is complete control
[11] = Rate 500 g/ha, Pre-emergence, flood test species, scale 0 to 10 (0 no effect, 10 complete control)

COc1cc(C)cc(C)c1-n1c(=O)on(C(=O)N(c2ccc(F)cc2F)C(C)C)c1=O [Compound 223]
B. signalgrass plant response rating (surinam grass; [1]): 0
B. signalgrass plant response rating (surinam grass; Preemergence, Rate 250 g/ha, scale 0 to 10, 0 is no effect, 10 is complete control): 3
Plant response rating, B. signalgrass (surinam grass; [2]): 4
B. signalgrass plant response rating (surinam grass; [3]): 0
B. signalgrass plant response rating (surinam grass; Rate 125 g/ha, Postemergence, scale 0 (no effect) to 10 (complete control)): 0
B. signalgrass plant response rating (surinam grass; [4]): 0
Plant response rating (0 to 10; 0 is no effect, 10 is complete control), B. signalgrass (surinam grass; Rate 250 g/ha, Postemergence): 0
B. signalgrass plant response rating (surinam grass; [5]): 0
Wheat plant response rating (wheat; [1]): 0
Wheat plant response rating (wheat; [6]): 0
Plant response rating, Wheat (wheat; [2]): 0
Wheat plant response rating (wheat; [3]): 0
Wheat plant response rating (wheat; [7]): 0
Wheat plant response rating (wheat; [4]): 0
Plant response rating (0 to 10; 0 is no effect, 10 is complete control), Wheat (wheat; Rate 250 g/ha, Postemergence): 0
Wheat plant response rating (wheat; [5]): 0
Morningglory plant response rating (morningglory; [1]): 0
Morningglory plant response rating (morningglory; [6]): 1
Plant response rating, Morningglory (morningglory; [2]): 1
Morningglory plant response rating (morningglory; [3]): 1
Morningglory plant response rating (morningglory; [7]): 3
Morningglory plant response rating (morningglory; [4]): 1
Plant response rating (0 to 10; 0 is no effect, 10 is complete control), Morningglory (morningglory; Rate 250 g/ha, Postemergence): 4
Morningglory plant response rating (morningglory; [5]): 6
Wild oats plant response rating (wild oat; [6]): 2
Plant response rating, Wild oats (wild oat; [2]): 4
Wild oats plant response rating (wild oat; [3]): 0
Wild oats plant response rating (wild oat; [7]): 0
Wild oats plant response rating (wild oat; [4]): 0
Plant response rating (0 to 10; 0 is no effect, 10 is complete control), Wild oats (wild oat; Rate 250 g/ha, Postemergence): 0
Wild oats plant response rating (wild oat; [5]): 2
Rice plant response rating (rice; [8]): 0
Rice plant response rating (rice; [9]): 0
Rice plant response rating (rice; [10]): 0
Rice plant response rating (rice; [11]): 0
Giant foxtail plant response rating (giant foxtail; [1]): 7
Plant response rating, Giant foxtail (giant foxtail; [2]): 9
Giant foxtail plant response rating (giant foxtail; [3]): 0
Giant foxtail plant response rating (giant foxtail; [7]): 0
Giant foxtail plant response rating (giant foxtail; [4]): 9
Plant response rating (0 to 10; 0 is no effect, 10 is complete control), Giant foxtail (giant foxtail; Rate 250 g/ha, Postemergence): 0
Giant foxtail plant response rating (giant foxtail; [5]): 1
Corn plant response rating (corn; [1]): 0
Corn plant response rating (corn; [6]): 0
Plant response rating, Corn (corn; [2]): 0
Corn plant response rating (corn; [3]): 0
Corn plant response rating (corn; [7]): 0
Corn plant response rating (corn; [4]): 0
Plant response rating (0 to 10; 0 is no effect, 10 is complete control), Corn (corn; Rate 250 g/ha, Postemergence): 0
Corn plant response rating (corn; [5]): 0
Nutsedge plant response rating (purple nutsedge; [1]): 0
Nutsedge plant response rating (purple nutsedge; [3]): 0
Nutsedge plant response rating (purple nutsedge; [7]): 0
Nutsedge plant response rating (purple nutsedge; [4]): 0
Plant response rating (0 to 10; 0 is no effect, 10 is complete control), Nutsedge (purple nutsedge; Rate 250 g/ha, Postemergence): 0
Nutsedge plant response rating (purple nutsedge; [5]): 0
Ducksalad plant response rating (duck salad; [8]): 0
Ducksalad plant response rating (duck salad; [9]): 0
Ducksalad plant response rating (duck salad; [10]): 0
Ducksalad plant response rating (duck salad; [11]): 0
Bedstraw plant response rating (bedstraw; [1]): 0
Bedstraw plant response rating (bedstraw; [6]): 0
Plant response rating, Bedstraw (bedstraw; [2]): 3
Bedstraw plant response rating (bedstraw; [3]): 3
Bedstraw plant response rating (bedstraw; [7]): 3
Bedstraw plant response rating (bedstraw; [4]): 0
Plant response rating (0 to 10; 0 is no effect, 10 is complete control), Bedstraw (bedstraw; Rate 250 g/ha, Postemergence): 4
Bedstraw plant response rating (bedstraw; [5]): 5
Redroot pigweed plant response rating (pigweed; [1]): 0
Redroot pigweed plant response rating (pigweed; [6]): 7
Plant response rating, Redroot pigweed (pigweed; [2]): 7
Redroot pigweed plant response rating (pigweed; [3]): 0
Redroot pigweed plant response rating (pigweed; [7]): 2
Redroot pigweed plant response rating (pigweed; [4]): 0
Plant response rating (0 to 10; 0 is no effect, 10 is complete control), Redroot pigweed (pigweed; Rate 250 g/ha, Postemergence): 3
Redroot pigweed plant response rating (pigweed; [5]): 5
Velvetleaf plant response rating (velvetleaf; [1]): 0
Velvetleaf plant response rating (velvetleaf; [6]): 0
Plant response rating, Velvetleaf (velvetleaf; [2]): 0
Velvetleaf plant response rating (velvetleaf; [3]): 0
Velvetleaf plant response rating (velvetleaf; [7]): 0
Velvetleaf plant response rating (velvetleaf; [4]): 0
Plant response rating (0 to 10; 0 is no effect, 10 is complete control), Velvetleaf (velvetleaf; Rate 250 g/ha, Postemergence): 2
Velvetleaf plant response rating (velvetleaf; [5]): 3
S. Flatsedge plant response rating (smallflower flatsedge; [8]): 0
S. Flatsedge plant response rating (smallflower flatsedge; [9]): 0
S. Flatsedge plant response rating (smallflower flatsedge; [10]): 0
S. Flatsedge plant response rating (smallflower flatsedge; [11]): 0
Crabgrass plant response rating (crabgrass; [1]): 4
Crabgrass plant response rating (crabgrass; [6]): 7
Plant response rating, Crabgrass (crabgrass; [2]): 9
Crabgrass plant response rating (crabgrass; [3]): 0
Crabgrass plant response rating (crabgrass; [7]): 0
Crabgrass plant response rating (crabgrass; [4]): 6
Plant response rating (0 to 10; 0 is no effect, 10 is complete control), Crabgrass (crabgrass; Rate 250 g/ha, Postemergence): 1
Crabgrass plant response rating (crabgrass; [5]): 3
Soybean plant response rating (soybean; [1]): 0
Soybean plant response rating (soybean; [6]): 0
Plant response rating, Soybean (soybean; [2]): 0
Soybean plant response rating (soybean; [3]): 3
Soybean plant response rating (soybean; [7]): 3
Soybean plant response rating (soybean; [4]): 0
Plant response rating (0 to 10; 0 is no effect, 10 is complete control), Soybean (soybean; Rate 250 g/ha, Postemergence): 3
Soybean plant response rating (soybean; [5]): 4
Blackgrass plant response rating (blackgrass; [1]): 0
Blackgrass plant response rating (blackgrass; [6]): 4
Plant response rating, Blackgrass (blackgrass; [2]): 5
Blackgrass plant response rating (blackgrass; [3]): 0
Blackgrass plant response rating (blackgrass; [7]): 0
Blackgrass plant response rating (blackgrass; [4]): 1
Plant response rating (0 to 10; 0 is no effect, 10 is complete control), Blackgrass (blackgrass; Rate 250 g/ha, Postemergence): 3
Blackgrass plant response rating (blackgrass; [5]): 1
